The target in one assay is T1, PARP7 (Homo sapiens, UniProt Q7Z3E1).
T1 sequence (Q7Z3E1 1-657): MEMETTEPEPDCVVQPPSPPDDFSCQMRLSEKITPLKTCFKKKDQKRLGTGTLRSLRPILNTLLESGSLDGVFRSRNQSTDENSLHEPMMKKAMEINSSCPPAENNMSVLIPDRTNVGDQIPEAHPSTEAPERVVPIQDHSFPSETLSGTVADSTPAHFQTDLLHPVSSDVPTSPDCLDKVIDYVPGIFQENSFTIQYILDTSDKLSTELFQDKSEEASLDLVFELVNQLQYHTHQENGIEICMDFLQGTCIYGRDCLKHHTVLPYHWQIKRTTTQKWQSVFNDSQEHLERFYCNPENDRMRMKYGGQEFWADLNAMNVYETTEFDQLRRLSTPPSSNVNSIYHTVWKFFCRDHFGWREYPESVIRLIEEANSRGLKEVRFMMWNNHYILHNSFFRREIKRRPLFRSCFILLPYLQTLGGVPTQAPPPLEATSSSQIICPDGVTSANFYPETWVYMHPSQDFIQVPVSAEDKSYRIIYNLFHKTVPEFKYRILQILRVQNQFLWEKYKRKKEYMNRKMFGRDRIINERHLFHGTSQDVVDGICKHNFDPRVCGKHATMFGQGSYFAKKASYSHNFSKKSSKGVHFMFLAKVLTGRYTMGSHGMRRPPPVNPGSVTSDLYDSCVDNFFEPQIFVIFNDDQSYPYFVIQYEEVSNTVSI
Put plainly: Probe Displacement Assay for PARP7 (MSD electrochemiluminescent, biotinylated probe RBNO11147). Particulars: displacement of biotinylated probe RBNO11147 from PARP7 NAD+-binding site; read-out: MSD ProbeDisp PARP7 IC50.

Assay [1] relates to endogenous cellular STAT1 (phosphorylated at Tyr701) in NCI-H1373 cells. Put plainly: Phospho-STAT1 (Tyr701) LANCE Ultra TR-FRET Detection Assay. It counts as cell-based. The conditions noted are these: Homo sapiens, NCI-H1373, 48 h, phospho-STAT1 (Tyr701) induction, read-out: NH1373 pSTAT1 EC50.

Some results are limits rather than exact numbers.

Experimental for PARP7: Displacement of a biotinylated probe (RBNO11147; Wigle et al., Cell Chemical Biology, 2020, pp. 877-887) from the PARP7 NAD+-binding site was measured in vitro using a Mesoscale Discovery electrochemiluminescent assay. […] Next, 10 ml of 10 nM PARP7 protein incubated for 1 hour at room temperature with a dose response curve of each test compound in a Greiner LDV polypropylene plate (#781201) is added to the MSD plate containing the immobilized probe. The interaction is allowed to reach equilibrium for 1.5 hours, and then 10 ml of SULFO-TAG labeled anti-GST antibody (Cat #R32AA-1) is added to each well and allowed to incubate for an additional 1.5 hours at room temperature. Finally, 10 ml of MSD read buffer T (4×, Cat. #R92C-1) is added to each well using a Bravo liquid handler to prevent air bubbles in the wells, and the plates are subsequently read in an MSD instrument. Light intensity is then measured to quantify the amount of PARP7 bound to the immobilized probe on the plate.

With `C[C@@H](CCCn1ccc2cc(-c3ncc(C(F)(F)F)cn3)ccc2c1=O)Nc1cn[nH]c(=O)c1C(F)(F)F` [Example 5, 2-[(4S)-4-[[6-oxo-5-(trifluoromethyl)-1H-pyridazin-4-yl]amino]pentyl]-6-[5-(trifluoromethyl)pyrimidin-2-yl]isoquinolin-1-one], the half-inhibitory concentration (IC50) on PARP7 amounted to 0.3 nM. For the same compound, the EC50 in assay [1] was determined as 143 nM. On to `Nc1nc(-c2cc3ccn(CCC[C@H](COC(F)F)Nc4cn[nH]c(=O)c4C(F)(F)F)c(=O)c3cc2F)ncc1C(F)F` [Example 376, (R)-6-(4-amino-5-(difluoromethyl)pyrimidin-2-yl)-2-(5-(difluoromethoxy)-4-((6-oxo-5-(trifluoromethyl)-1,6-dihydropyridazin-4-yl)amino)pentyl)-7-fluoroisoquinolin-1(2H)-one], for which the IC50 on PARP7 came out at 0.339 nM. Besides, in assay [1], the EC50 was determined as 3.03 nM.

Regarding `Cc1cc(NC2CC2)nc(-c2cc3ccn(CCC[C@H](C)Nc4cn[nH]c(=O)c4C(F)(F)F)c(=O)c3cc2F)n1` [Example 310, (S)-6-(4-(cyclopropylamino)-6-methylpyrimidin-2-yl)-7-fluoro-2-(4-((6-oxo-5-(trifluoromethyl)-1,6-dihydropyridazin-4-yl)amino)pentyl)isoquinolin-1(2H)-one], the IC50 at PARP7 is 1.3 nM. The EC50 in assay [1] came to 910 nM.

For the compound `C[C@@H](CCCn1ccc2cc(-c3ncc(F)cn3)c(F)c(F)c2c1=O)Nc1cn[nH]c(=O)c1C(F)(F)F` [Example 54, (S)-7,8-difluoro-6-(5-fluoropyrimidin-2-yl)-2-(4-((6-oxo-5-(trifluoromethyl)-1,6-dihydropyridazin-4-yl)amino)pentyl)isoquinolin-1(2H)-one], the IC50 at PARP7 is 0.685 nM. Further, in assay [1], the EC50 turned out to be 156 nM. Take `O=c1[nH]ncc(NC2(CCCn3ccc4cc(-c5ncc(C(F)(F)F)cn5)c(F)cc4c3=O)CC2)c1C(F)(F)F` [Example 61, 7-fluoro-2-(3-(1-((6-oxo-5-(trifluoromethyl)-1,6-dihydropyridazin-4-yl)amino)cyclopropyl)propyl)-6-(5-(trifluoromethyl)pyrimidin-2-yl)isoquinolin-1(2H)-one]: the IC50 on PARP7 turned out to be 1.27 nM. The EC50 in assay [1] was 638 nM. With `C[C@@H](CCCn1ccc2cc(-c3ccc4c(c3)OCCO4)c(F)cc2c1=O)Nc1cn[nH]c(=O)c1C(F)(F)F` [Example 28, (S)-6-(2,3-dihydrobenzo[b][1,4]dioxin-6-yl)-7-fluoro-2-(4-((6-oxo-5-(trifluoromethyl)-1,6-dihydropyridazin-4-yl)amino)pentyl)isoquinolin-1(2H)-one], the IC50 on PARP7 is more than 33 nM. Moreover, in assay [1], the EC50 was determined as 2180 nM. As to `C[C@@H](CCCn1cnc2cc(-c3ncc(F)cn3)c(F)cc2c1=O)Nc1cn[nH]c(=O)c1C(F)(F)F` [Example 60, 6-fluoro-7-(5-fluoropyrimidin-2-yl)-3-[(4S)-4-[[6-oxo-5-(trifluoromethyl)-1H-pyridazin-4-yl]amino]pentyl]quinazolin-4-one], the IC50 on PARP7 is 0.897 nM. For the same compound, in assay [1], the concentration for a half-maximal effect (EC50) came out at 772 nM. Regarding `O=c1[nH]ncc(N[C@H](CCCn2cnc3cc(-c4ncc(C(F)(F)F)cn4)c(F)cc3c2=O)C2CC2)c1C(F)(F)F` [Example 471, 3-[(4R)-4-cyclopropyl-4-[[6-oxo-5-(trifluoromethyl)-1H-pyridazin-4-yl]amino]butyl]-6-fluoro-7-[5-(trifluoromethyl)pyrimidin-2-yl]quinazolin-4-one], the EC50 in assay [1] worked out at 23.2 nM. Regarding `O=c1[nH]ncc(N[C@H]2CCC[C@@H](Cn3ccc4cc(-c5ncc(C(F)(F)F)cn5)cc(F)c4c3=O)C2)c1C(F)(F)F` [Example 285, 8-fluoro-2-(((1R,3S)-3-((6-oxo-5-(trifluoromethyl)-1,6-dihydropyridazin-4-yl)amino)cyclohexyl)methyl)-6-(5-(trifluoromethyl)pyrimidin-2-yl)isoquinolin-1(2H)-one], in assay [1], the EC50 worked out at 78.7 nM. Turning to `Nc1nc(-c2cc3ncn(CCC[C@@H](Nc4cn[nH]c(=O)c4C(F)(F)F)C4CC4)c(=O)c3cc2F)ncc1Cl` [Example 461, (R)-7-(4-amino-5-chloropyrimidin-2-yl)-3-(4-cyclopropyl-4-((6-oxo-5-(trifluoromethyl)-1,6-dihydropyridazin-4-yl)amino)butyl)-6-fluoroquinazolin-4(3H)-one], in assay [1], the EC50 was determined as 15.1 nM. For the compound `C[C@@H](CCCn1ccc2cc(-c3cnc(C(F)F)cn3)c(F)cc2c1=O)Nc1cn[nH]c(=O)c1C(F)(F)F` [Example 329, (S)-6-(5-(difluoromethyl)pyrazin-2-yl)-7-fluoro-2-(4-((6-oxo-5-(trifluoromethyl)-1,6-dihydropyridazin-4-yl)amino)pentyl)isoquinolin-1(2H)-one], the EC50 in assay [1] amounted to 97.7 nM. Consider `C[C@@H](CCCn1ccc2cc(-c3ncc(Cl)c(N)n3)c(F)c(F)c2c1=O)Nc1cn[nH]c(=O)c1C(F)(F)F` [Example 341, (S)-6-(4-amino-5-chloropyrimidin-2-yl)-7,8-difluoro-2-(4-((6-oxo-5-(trifluoromethyl)-1,6-dihydropyridazin-4-yl)amino)pentyl)isoquinolin-1(2H)-one], for which the EC50 in assay [1] came to 1.95 nM. Take `O=c1[nH]ncc(N[C@H]2CCC[C@@H](Cn3ccc4cc(-c5ncc(C(F)F)cn5)c(F)cc4c3=O)C2)c1C(F)(F)F` [Example 226, 6-[5-(difluoromethyl)pyrimidin-2-yl]-7-fluoro-2-[[(1R,3S)-3-[[6-oxo-5-(trifluoromethyl)-1H-pyridazin-4-yl]amino]cyclohexyl]methyl]isoquinolin-1-one]: in assay [1], the EC50 worked out at 5.34 nM. Same read-out and setting: the value for `O=c1[nH]ncc(N[C@H](CCCn2cnc3cc(-c4ccc(C(F)(F)F)cn4)c(F)cc3c2=O)COC(F)F)c1C(F)(F)F` [Example 403, (R)-3-(5-(difluoromethoxy)-4-((6-oxo-5-(trifluoromethyl)-1,6-dihydropyridazin-4-yl)amino)pentyl)-6-fluoro-7-(5-(trifluoromethyl)pyridin-2-yl)quinazolin-4(3H)-one] was 3.65 nM. On to `Nc1nc(-c2cc3ccn(CCC[C@@H]4CC5(CC5)CN4c4cn[nH]c(=O)c4C(F)(F)F)c(=O)c3cc2F)ncc1C(F)F` [Example 143, 6-[4-amino-5-(difluoromethyl)pyrimidin-2-yl]-7-fluoro-2-[3-[(6R)-5-[6-oxo-5-(trifluoromethyl)-1H-pyridazin-4-yl]-5-azaspiro[2.4]heptan-6-yl]propyl]isoquinolin-1-one], for which the EC50 in assay [1] is 26.5 nM. Turning to `C[C@@H](CCCn1cnc2cc(-c3ncc(C(F)(F)F)c(NC4CC4)n3)c(F)cc2c1=O)Nc1cn[nH]c(=O)c1C(F)(F)F` [Example 116, 7-[4-(cyclopropylamino)-5-(trifluoromethyl)pyrimidin-2-yl]-6-fluoro-3-[(4S)-4-[[6-oxo-5-(trifluoromethyl)-1H-pyridazin-4-yl]amino]pentyl]quinazolin-4-one], the concentration for a half-maximal effect (EC50) in assay [1] came to 6.7 nM. In the case of `Nc1nc(-c2cc3ncn(CC[C@H]4CCC[C@@H]4Nc4cn[nH]c(=O)c4C(F)(F)F)c(=O)c3cc2F)ncc1C(F)(F)F` [Example 464, 7-(4-amino-5-(trifluoromethyl)pyrimidin-2-yl)-6-fluoro-3-(2-((1R,2S)-2-((6-oxo-5-(trifluoromethyl)-1,6-dihydropyridazin-4-yl)amino)cvclopentyl)ethyl)quinazolin-4(3H)-one], in assay [1], the EC50 worked out at 3.62 nM. As to `COc1cnc(-c2cc3ccn(CCC[C@H](C)Nc4cn[nH]c(=O)c4C(F)(F)F)c(=O)c3cc2F)nc1NC1COC1` [Example 217, (S)-7-fluoro-6-(5-methoxy-4-(oxetan-3-ylamino)pyrimidin-2-yl)-2-(4-((6-oxo-5-(trifluoromethyl)-1,6-dihydropyridazin-4-yl)amino)pentyl)isoquinolin-1(2H)-one], in assay [1], the EC50 was found to be 1580 nM.

As to `O=c1[nH]ncc(N[C@H]2CCC[C@@H](Cn3cc(Br)c4cc(-c5ncc(C(F)(F)F)cn5)c(F)cc4c3=O)C2)c1C(F)(F)F` [Example 459, 4-bromo-7-fluoro-2-(((1R,3S)-3-((6-oxo-5-(trifluoromethyl)-1,6-dihydropyridazin-4-yl)amino)cyclohexyl)methyl)-6-(5-(trifluoromethyl)pyrimidin-2-yl)isoquinolin-1(2H)-one], the EC50 in assay [1] turned out to be 12.2 nM. As for `O=c1[nH]ncc(N[C@H]2CCC[C@@H](Cn3ccc4cc(-c5cnc(C(F)(F)F)cn5)c(F)cc4c3=O)C2)c1C(F)(F)F` [Example 256, 7-fluoro-2-(((1R,3S)-3-((6-oxo-5-(trifluoromethyl)-1,6-dihydropyridazin-4-yl)amino)cyclohexyl)methyl)-6-(5-(trifluoromethyl)pyrazin-2-yl)isoquinolin-1(2H)-one], the EC50 in assay [1] was determined as 30.2 nM. As for `O=c1[nH]ncc(N2CC[C@H]2CCCn2cnc3cc(-c4ncc(C(F)(F)F)cn4)c(F)cc3c2=O)c1C(F)(F)F` (single isomer, unassigned) [Example 152], the concentration for a half-maximal effect (EC50) in assay [1] came to 0.508 nM.

(Values after patent publication US12459922B2 (Gilead Sciences, Inc., priority 2022, dated 2025).)
